Reference: US4389394A, “Methods for reducing dental caries” (Talres Development (N.A.) N.V., priority 1978, dated 1983)
“Also recorded” adds a separate entry of the source.

Assays:
[1] = Acute oral toxicity in the rat; conditions: in vivo, per os, maximum dose practically possible
Description: For example, in the rat the compound no.

S. mutans [2] = test: (D) Further tests on adherence to teeth; format: cell-based, Streptococcus mutans; conditions: glass slide; 0.055 molar; Duncan procedure
Procedure: (§1) The extent to which cells of S. mutans adhere to teeth was investigated using a recognized model system. Solutions of the same substances as in (A) were made up, and the degree of deposition of suspended cells on to glass was studied using a "Magiscan" image analyser (Talyer et al., 1978 Praktischen Metallographie, Sonderbande 8: 433-442).
While recording the pH during the tests of (C), the adherence was monitored in the same way as in (B). The percentage coverage of a glass slide was determined at 0.5 and 4 hours for each solution, and the results treated by the Duncan procedure.

[3] = system: germ-free Liverpool hooded rats inoculated orally with Streptococcus mutans NCT 10823; test: (E) Gnotobiotic rat caries model; format: in vivo; conditions: 21 days; diet 33% skim milk, 67% carbohydrate; S. mutans NCT 10823; statement in words
Procedure: Studies were carried out on the effect of chlorodeoxysucroses on cariogenic food products, using 4,1',6'-trichloro-4,1',6'-trideoxygalactosucrose as the chlorodeoxysucrose. Cariogenicity was examined using the gnotobiotic rat caries model (see for example Drucker and Green, Arch. Oral Biol. Vol 23 pp 183-187).
The experiment involved the use of germ-free Liverpool hooded rats inoculated orally with Streptococcus mutans NCT 10823 (a caries-producing organism). The rats were fed a diet consisting essentially of 33% by weight skim milk and 67% by weight carbohydrate. The carbohydrate consisted of (i) starch, or (ii) sucrose, or (iii) starch together with sufficient of the chlorodeoxysucrose to give a sweetness as perceived by a human of the same order as that of the sucrose. After 21 days, the rats were sacrificed and the lower jaw lesions were counted to give a caries score for each rat (see Konig, Marthaler and Muhlemann, Dt. Zahn-Mund-u. Kieferheilk Vol. 29, 99-127).

S. mutans [4] = test: (C) Further tests on pH reduction; format: cell-based, Streptococcus mutans; conditions: for effect on acid production / pH: statement in words, pooled 2, 3 and 4 hours
Procedure: (§2) Plain aqueous solutions were used and also solutions containing amino acids (protein hydrolysate) 1% w/v to approximate the buffering effect of natural saliva. Control experiments were effected using no saccharide in order to illustrate the endogenous metabolism of the organism. Each experiment was quadruplicated and was run at 37° C. The pH was measured at 0, 0.5, 1, 1.5,2, 3 and 4 hours.
Twelve sets of tests were carried out in the same way as described above at (A) but using solutions which were 0.055 molar in the respective chlorodeoxy derivative.
Solutions of the following were employed:
(i) Saline, negative control for endogenous metabolism
(ii) Sucrose, positive control
(iii) 6,1',6'-trichloro-6,1',6'-trideoxysucrose, compound no. 7.
(iv) Compound no. 7 plus sucrose.
(v) 1',6'-dichloro-1',6'-dideoxysucrose, compound no. 4
(vi) Compound no. 4 plus sucrose
(vii) 4,1',6'-trichloro-4,1',6'-trideoxygalactosucrose, Compound no. 5.
(viii) Compound no. 5 plus sucrose
(ix) 4,6,6'-trichloro-4,6,6'-trideoxygalactosucrose, Compound no. 6
(x) Compound no. 6 plus sucrose
(xi) 1'-chloro-1'-deoxysucrose, compound no. 1
(xii) Compound no. 1 plus sucrose
The acid production was monitored as before.

S. mutans [5] = test: (B) Adherence to teeth: deposition of suspended cells on to glass (Magiscan image analyser); format: cell-based, Streptococcus mutans
Description: as §1
Each reading is the mean of 40 determinations.

[6] = West German Offenlegungsschrift No. 2700036; cited from earlier work
S. mutans [7] = test: Scanning electron microscopy of glass with adherent cells; format: cell-based, Streptococcus mutans; conditions: sucrose medium; qualitative
[8] = system: Streptococcus mutans NCTC 10832; test: (A) Effect on reduction of pH by Streptococcus mutans; format: cell-based; conditions: for pH: no amino acids, 0.05 molar each saccharide, 37° C
Description: Mouth flora such as S. mutans cause dental caries by producing acid which erodes the tooth enamel. The cells exude a polysaccharide which firmly adheres them to the tooth surfaces as plaque, thus enhancing the local erosion by the acid. The effect of chlorodeoxysucroses on acid production by S. mutans in sucrose solutions was studied in comparison with the effect produced by xylitol, an agent proposed as a caries preventative.
as §2

[9] = no amino acid, mean of 40 determinations

OC[C@H]1O[C@H](O[C@]2(CCl)O[C@H](CCl)[C@@H](O)[C@@H]2O)[C@H](O)[C@@H](O)[C@H]1Cl [Compound no. 5, 4-chloro-4-deoxy-α-D-galactopyranosyl-1,6-dichloro-1,6-dideoxy-β-D-fructofuranoside]
LD50 [1]: > 16000 mg/kg
% coverage after 0.5 hours (S. mutans [2]): 41.4%
% coverage after 4 hours (S. mutans [2]): 58.4%
cariogenicity (caries score) [3]: appeared to be decreasing the cariogenicity of the starch
Mean pH (S. mutans [4]; 0.055 molar chlorodeoxy derivative, pooled data for 2, 3 and 4 hours, Duncan procedure): 6.82
effect on acid production / pH (S. mutans [4]): give a better result than the negative control, saline
effect on acid production / pH (S. mutans [4]; listed as (vii)): one pH unit less than that of solution (ii)
effect on acid production / pH (S. mutans [4]; listed as no. 5): especially effective
degree of adhesion (S. mutans [5]; Mann Whitney U-test, statement in words, listed as TGS): reduces the degree of adhesion significantly; also recorded: the reduction is greater than that of xylitol
Coverage (%) after 0.5 h (S. mutans [5]; [9]): 30.42%
Coverage (%) after 4.0 h (S. mutans [5]; [9]): 64.81%
sweetness relative to sucrose [6]: many times sweeter than sucrose
extracellular coating and size of clumps of adherent cells (S. mutans [7]): found to reduce the extracellular coating and the size of the clumps
pH ([8]; 0 h): 5.88
pH ([8]; 0.5 h): 5.67
pH ([8]; 1.0 h): 5.69
pH ([8]; 1.5 h): 5.69
pH ([8]; 2.0 h): 5.61
pH ([8]; 3.0 h): 5.67
pH ([8]; 4.0 h): 5.63
Mean pH ([8]; Duncan Procedure sub-sets, amino acids where named in the solution): 5.64
effect on acid production ([8]; statement in words, listed as TGS): always had a favourable effect which was statistically significant; also recorded: reduced the amount of acid produced; also recorded: on its own had a favourable effect against the endogenous metabolism of the micro-organism
